Format in all cases: functional
Experiment [1] deals with Staphylococcus aureus. Briefly: Antibacterial activity against methicillin-resistant Staphylococcus aureus N315 after 24 hrs by two fold serial dilution method. To be noted: N315, 24 h.
The subject of the next experiment is Enterococcus faecalis. Briefly: Antibacterial activity against Enterococcus faecalis after 24 hrs by two fold serial dilution method.
For experiment [2], the system named is Staphylococcus aureus. Briefly: Antibacterial activity against Staphylococcus aureus after 24 hrs by two fold serial dilution method.
For experiment [3], the system named is Staphylococcus aureus. Briefly: Antibacterial activity against Staphylococcus aureus ATCC 25923 after 24 hrs by two fold serial dilution method. The conditions noted are these: ATCC 25923, 24 h.
Experiment [4] concerns Staphylococcus aureus. Briefly: Antibacterial activity against Staphylococcus aureus ATCC 29213 after 24 hrs by two fold serial dilution method. To be noted: ATCC 29213, 24 h.
In the next experiment the test system is Klebsiella pneumoniae. The experiment is described as follows: Antibacterial activity against Klebsiella pneumoniae after 24 hrs by two fold serial dilution method.
Experiment [5] deals with Escherichia coli. The experiment is described as follows: Antibacterial activity against Escherichia coli after 24 hrs by two fold serial dilution method.
In experiment [6] the test system is Pseudomonas aeruginosa. The experiment is described as follows: Antibacterial activity against Pseudomonas aeruginosa after 24 hrs by two fold serial dilution method.
The test system of another experiment is Acinetobacter baumannii. The experiment is described as follows: Antibacterial activity against Acinetobacter baumannii after 24 hrs by two fold serial dilution method.
The test system of experiment [7] is Pseudomonas aeruginosa. The experiment is described as follows: Antibacterial activity against Pseudomonas aeruginosa ATCC 27853 after 24 hrs by two fold serial dilution method. The conditions noted are these: ATCC 27853, 24 h.
For experiment [8], the system named is Escherichia coli. Briefly: Antibacterial activity against Escherichia coli ATCC 25922 after 24 hrs by two fold serial dilution method. To be noted: ATCC 25922, 24 h.
The test system of experiment [9] is Candida albicans. The experiment is described as follows: Antifungal activity against Candida albicans after 24 hrs by two fold serial dilution method.
Another experiment relates to Candida tropicalis. Briefly: Antifungal activity against Candida tropicalis after 24 hrs by two fold serial dilution method.
A further experiment relates to Aspergillus fumigatus. The experiment is described as follows: Antifungal activity against Aspergillus fumigatus after 24 hrs by two fold serial dilution method.
The subject of experiment [10] is Candida albicans. The experiment is described as follows: Antifungal activity against Candida albicans ATCC 90023 after 24 hrs by two fold serial dilution method. The conditions noted are these: ATCC 90023, 24 h.
Another experiment relates to Candida parapsilosis. The experiment is described as follows: Antifungal activity against Candida parapsilosis ATCC 22019 after 24 hrs by two fold serial dilution method. To be noted: ATCC 22019, 24 h.

Values after ≈ are worked out from the molar mass of the structure shown.

For orientation: MIC means the least concentration at which growth counts as inhibited. A higher MIC goes with a less susceptible organism. As a reminder, the MIC80 is an inhibitory concentration at the 80% level, which refers to growth in some studies and to a panel of isolates in others. The low end stands for higher susceptibility, the high end for lower susceptibility.

As for `CCn1cc(C(=O)O)c(=O)c2cc(F)c(N3CCNCC3)cc21` [NORFLOXACIN], the MIC in the experiment on Staphylococcus aureus [1] is above 512 µg/mL; against Enterococcus faecalis it was 256 µg/mL (≈ 802 µM); in the experiment on Staphylococcus aureus [2] it was 64 µg/mL (≈ 200 µM); against Staphylococcus aureus [3], 32 µg/mL (≈ 100 µM); against Staphylococcus aureus [4] it was 8 µg/mL (≈ 25.1 µM); in the experiment with Klebsiella pneumoniae, above 512 µg/mL. Further, the MIC stood at 512 µg/mL (≈ 1600 µM) in the experiment with Escherichia coli [5]; 4 µg/mL (≈ 12.5 µM) in the experiment with Pseudomonas aeruginosa [6]; 32 µg/mL (≈ 100 µM) against Acinetobacter baumannii; 512 µg/mL (≈ 1600 µM) with Pseudomonas aeruginosa [7]; 1 µg/mL (≈ 3.13 µM) with Escherichia coli [8].
For the compound `CCCCCCCCCCn1c(Cn2cnc3c(N4CCOCC4)ncnc32)nc2ccccc21`, the MIC against Staphylococcus aureus [1] is 256 µg/mL (≈ 538 µM); in the experiment on Enterococcus faecalis it was 128 µg/mL (≈ 269 µM); with Staphylococcus aureus [2] it was 256 µg/mL (≈ 538 µM); against Staphylococcus aureus [3] it was 256 µg/mL (≈ 538 µM); in the experiment on Staphylococcus aureus [4] it was 256 µg/mL (≈ 538 µM); against Klebsiella pneumoniae, 128 µg/mL (≈ 269 µM). Further, the MIC against Escherichia coli [5] stood at 32 µg/mL (≈ 67.3 µM); against Pseudomonas aeruginosa [6] it was 256 µg/mL (≈ 538 µM); with Acinetobacter baumannii it was 256 µg/mL (≈ 538 µM); against Pseudomonas aeruginosa [7], 16 µg/mL (≈ 33.6 µM); in the experiment with Escherichia coli [8], 128 µg/mL (≈ 269 µM). For the same compound, the MIC80 in the experiment on Candida albicans [9] was determined as 128 µg/mL (≈ 269 µM); against Candida tropicalis it was 256 µg/mL (≈ 538 µM); against Aspergillus fumigatus, 256 µg/mL (≈ 538 µM); against Candida albicans [10] it was 64 µg/mL (≈ 135 µM); in the experiment on Candida parapsilosis it was 256 µg/mL (≈ 538 µM).
For `Fc1ccc(Cn2c(Cn3cnc4c(N5CCOCC5)ncnc43)nc3ccccc32)cc1`, the minimum inhibitory concentration (MIC) came to 256 µg/mL (≈ 577 µM) with Staphylococcus aureus [1]; 256 µg/mL (≈ 577 µM) in the experiment with Enterococcus faecalis; 512 µg/mL (≈ 1150 µM) in the experiment with Staphylococcus aureus [2]; 64 µg/mL (≈ 144 µM) against Staphylococcus aureus [3]; 256 µg/mL (≈ 577 µM) against Staphylococcus aureus [4]; 128 µg/mL (≈ 289 µM) in the experiment with Klebsiella pneumoniae. Besides, the MIC is 128 µg/mL (≈ 289 µM) with Escherichia coli [5]; 256 µg/mL (≈ 577 µM) in the experiment with Pseudomonas aeruginosa [6]; 256 µg/mL (≈ 577 µM) in the experiment on Acinetobacter baumannii; 64 µg/mL (≈ 144 µM) in the experiment on Pseudomonas aeruginosa [7]; 256 µg/mL (≈ 577 µM) in the experiment with Escherichia coli [8]. Further, the MIC80 against Candida albicans [9] turned out to be 256 µg/mL (≈ 577 µM); in the experiment with Candida tropicalis it was 64 µg/mL (≈ 144 µM); in the experiment with Aspergillus fumigatus, 256 µg/mL (≈ 577 µM); with Candida albicans [10], 128 µg/mL (≈ 289 µM); in the experiment with Candida parapsilosis, 256 µg/mL (≈ 577 µM).
On to `CCn1c(Cn2cnc3c(N4CCOCC4)ncnc32)nc2ccccc21`, for which the MIC came to 256 µg/mL (≈ 704 µM) against Staphylococcus aureus [1]; 128 µg/mL (≈ 352 µM) against Enterococcus faecalis; 256 µg/mL (≈ 704 µM) in the experiment with Staphylococcus aureus [2]; 256 µg/mL (≈ 704 µM) in the experiment on Staphylococcus aureus [3]; 256 µg/mL (≈ 704 µM) with Staphylococcus aureus [4]; 256 µg/mL (≈ 704 µM) in the experiment with Klebsiella pneumoniae. Besides, the MIC in the experiment on Escherichia coli [5] came to 128 µg/mL (≈ 352 µM); with Pseudomonas aeruginosa [6], 128 µg/mL (≈ 352 µM); in the experiment with Acinetobacter baumannii, 256 µg/mL (≈ 704 µM); with Pseudomonas aeruginosa [7], 256 µg/mL (≈ 704 µM); in the experiment on Escherichia coli [8], 128 µg/mL (≈ 352 µM). The MIC80 with Candida albicans [9] was found to be 256 µg/mL (≈ 704 µM); against Candida tropicalis, 256 µg/mL (≈ 704 µM); in the experiment with Aspergillus fumigatus, 256 µg/mL (≈ 704 µM); in the experiment with Candida albicans [10] it was 128 µg/mL (≈ 352 µM); in the experiment with Candida parapsilosis, 256 µg/mL (≈ 704 µM).
Consider `CCCCCCCCCCCCn1c(Cn2cnc3c(N4CCOCC4)ncnc32)nc2ccccc21`, for which the MIC is 512 µg/mL (≈ 1020 µM) with Staphylococcus aureus [1]; 128 µg/mL (≈ 254 µM) against Enterococcus faecalis; 16 µg/mL (≈ 31.8 µM) against Staphylococcus aureus [2]; 512 µg/mL (≈ 1020 µM) against Staphylococcus aureus [3]; 512 µg/mL (≈ 1020 µM) in the experiment on Staphylococcus aureus [4]; 256 µg/mL (≈ 508 µM) with Klebsiella pneumoniae. The MIC with Escherichia coli [5] amounted to 32 µg/mL (≈ 63.5 µM); with Pseudomonas aeruginosa [6], 128 µg/mL (≈ 254 µM); against Acinetobacter baumannii it was 512 µg/mL (≈ 1020 µM); against Pseudomonas aeruginosa [7], 128 µg/mL (≈ 254 µM); in the experiment on Escherichia coli [8], 256 µg/mL (≈ 508 µM). Besides, the MIC80 is 256 µg/mL (≈ 508 µM) in the experiment with Candida albicans [9]; 64 µg/mL (≈ 127 µM) with Candida tropicalis; 256 µg/mL (≈ 508 µM) with Aspergillus fumigatus; 64 µg/mL (≈ 127 µM) in the experiment with Candida albicans [10]; 256 µg/mL (≈ 508 µM) with Candida parapsilosis.
In the case of `c1nc2nc[nH]c(N3CCCC3)c-2n1`, the MIC against Staphylococcus aureus [1] is 512 µg/mL (≈ 2710 µM); against Enterococcus faecalis, 512 µg/mL (≈ 2710 µM); against Staphylococcus aureus [2], 64 µg/mL (≈ 338 µM); against Staphylococcus aureus [3], 512 µg/mL (≈ 2710 µM); against Staphylococcus aureus [4], 512 µg/mL (≈ 2710 µM); against Klebsiella pneumoniae, 512 µg/mL (≈ 2710 µM). In addition, the MIC with Escherichia coli [5] was found to be 256 µg/mL (≈ 1350 µM); with Pseudomonas aeruginosa [6], 256 µg/mL (≈ 1350 µM); against Acinetobacter baumannii, 256 µg/mL (≈ 1350 µM); with Pseudomonas aeruginosa [7], 128 µg/mL (≈ 676 µM); against Escherichia coli [8], 256 µg/mL (≈ 1350 µM). The MIC80 was 128 µg/mL (≈ 676 µM) with Candida albicans [9]; 128 µg/mL (≈ 676 µM) in the experiment with Candida tropicalis; 64 µg/mL (≈ 338 µM) against Aspergillus fumigatus; 256 µg/mL (≈ 1350 µM) with Candida albicans [10]; 512 µg/mL (≈ 2710 µM) with Candida parapsilosis.
`Cc1nc2ccccc2n1CCn1cnc2c(N3CCOCC3)ncnc21`: the MIC came to 512 µg/mL (≈ 1410 µM) with Staphylococcus aureus [1]; 256 µg/mL (≈ 704 µM) against Enterococcus faecalis; 256 µg/mL (≈ 704 µM) with Staphylococcus aureus [2]; 32 µg/mL (≈ 88.1 µM) in the experiment with Staphylococcus aureus [3]; 128 µg/mL (≈ 352 µM) with Staphylococcus aureus [4]; 256 µg/mL (≈ 704 µM) with Klebsiella pneumoniae. The MIC against Escherichia coli [5] came out at 512 µg/mL (≈ 1410 µM); in the experiment with Pseudomonas aeruginosa [6], 256 µg/mL (≈ 704 µM); in the experiment with Acinetobacter baumannii, 256 µg/mL (≈ 704 µM); against Pseudomonas aeruginosa [7] it was 256 µg/mL (≈ 704 µM); with Escherichia coli [8], 256 µg/mL (≈ 704 µM). Moreover, the MIC80 in the experiment on Candida albicans [9] worked out at 128 µg/mL (≈ 352 µM); with Candida tropicalis, 256 µg/mL (≈ 704 µM); in the experiment on Aspergillus fumigatus it was 256 µg/mL (≈ 704 µM); in the experiment with Candida albicans [10] it was 128 µg/mL (≈ 352 µM); against Candida parapsilosis, 512 µg/mL (≈ 1410 µM).
